The record followed here is PMC11206988, “Study on the Effect of Pharmaceutical Excipient PEG400 on the Pharmacokinetics of Baicalin in Cells Based on MRP2, MRP3, and BCRP Efflux Transporters” (Pharmaceutics, 2024).

The nature of data set [1]: Pharmacokinetic study of baicalin in HepG2 cells (intracellular concentrations by UPLC-MS/MS). Type of data set: in vitro ADME, human. Particulars: human, intracellular; for AUC(0-t) at 100 μM / Cmax at 100 μM / half-life at 100 μM: HepG2 cells. Here is the method:
(§1) The samples were quantified by UPLC-MS/MS, which consisted of a Dionex Ultimate 3000 UPLC system (Thermo Fisher Scientific, Waltham, MA, USA) and a triple quadrupole tandem mass spectrometer (Thermo Fisher Scientific, Waltham, MA, USA). The mass spectrometry was performed using an ESI ion source and in positive ion mode. The chromatograms are shown in Figure S1 of the Supplementary Materials. The samples were analyzed by a Waters XBridge BEH C18 column (2.1 × 100 mm). Mobile phase A consists of acetonitrile, while mobile phase B consists of water containing 0.1% formic acid. The elution program was as follows: B was initially 90%, 0 to 9 min B decreased from 90% to 27%, and 9.1 min to 12 min increased from 27% to 90% B. The flow rate of the mobile phase was 0.3 mL/min, the temperature of the automatic injector was 5 °C, and the injection volume was 10 μL. The m/z for BG and B6G was 447 → 271, for baicalein m/z 271 → 123, and for genistein (IS) m/z 271 → 153. Other mass spectrometry parameters included sheath gas (Arb) pressure, 20 psi, and auxiliary gas (Arb) pressure, 2 psi; source voltage, 4.8 KV, and capillary voltage, 2.5 KV; and ion-transfer-tube temperature, 375 °C, and atomization temperature, 275 °C.
(§2) HepG2 cells were cultured at a density of 1×10^5 cells/mL in 12-well plates for 24 h to facilitate the conduct of cellular pharmacokinetic experiments. The old medium was aspirated and discarded, the wells were rinsed twice with PBS, and 1 mL of 100 μM baicalin and baicalin + PEG400 (0.25%, 0.5%, and 1%) was added into 12-well plates to initiate the timer. The culture was terminated after 0.25 h, 0.5 h, 1 h, 2 h, 4 h, 6 h, 8 h, 10 h, 12 h, and 24 h, respectively. Upon reaching the designated time for administration, the cell culture medium was removed, and the wells were washed with 1 mL of cold PBS solution. Subsequently, 240 μL of ultra-pure water were added to each well, and the sample was stored at −80 °C until analysis. The sample was subjected to sonication in an ice bath for 10 min in order to lyse the cells, thereby enabling the determination of the accumulated drug concentration within the cells. Subsequently, 20 μL of the cell lysate was collected, and the protein concentration was quantified using a BCA kit for normalization.
(§3) After repeated freeze-thaw lysis, 100 μL of cell samples were taken, and 300 μL of 0.2% formic acid acetonitrile (containing 200 ng/mL genistein) were added to the vortex for 10 min to precipitate proteins and then centrifuged at 14,000 r/min for 10 min. Then the supernatant was blown dry under nitrogen at 40 °C and then reconstituted with 200 μL of methanol and centrifuged at 14,000 rpm for 10 min. The supernatant was subjected to UPLC-MS/MS analysis.

For a further data set, the system named is HepG2 cells. The description is as above. Type of data set: in vitro ADME, human. The following applies: HepG2 cells. Here is the method:
as §1, §2, §3

Where [2] appears, read: HepG2 cells given 100 μM baicalin + H PEG400 (1%).
Where [3] appears, read: HepG2 cells given 100 μM baicalin + L PEG400 (0.25%).
Where [4] appears, read: HepG2 cells given 100 μM baicalin + M PEG400 (0.5%).
[5] abbreviates: HepG2 cells given 100 μM baicalin alone (group BG, control).

As usually defined, the AUC(0-t) is exposure summed from dosing to a finite time, without extrapolation to infinity. As a reminder, the Cmax is the maximum level reached in the sampled fluid or tissue. Usually half-life stands for how long it takes for the measured level to halve. In general, Tmax refers to the time from dosing to the highest level. In the case of `O=C(O)[C@H]1O[C@@H](Oc2cc3oc(-c4ccccc4)cc(=O)c3c(O)c2O)[C@H](O)[C@@H](O)[C@@H]1O` [BG, Baicalein-7-O-β-D-glucuronide], the AUC(0-t) at 100 μM was determined as 130 ± 5.26 µg·h/mL in data set [1] (setting [2]); 107 ± 2.22 µg·h/mL in data set [1] (setting [3]); 112 ± 3.99 µg·h/mL in data set [1] (setting [4]); 76 ± 2.57 µg·h/mL in data set [1] (HepG2 cells given 100 μM baicalin alone (group BG, control), 0.25-24 h). Moreover, the Cmax at 100 μM in data set [1] (setting [2]) was found to be 10800 ± 350 ng/mL; in data set [1] (setting [3]) it was 10200 ± 1480 ng/mL; in data set [1] (setting [4]) it was 11200 ± 1500 ng/mL; in data set [1] (setting [5]), 7840 ± 110 ng/mL. The half-life at 100 μM is 5.43 ± 0.91 h in data set [1] (setting [2]), 9.91 ± 3.76 h in data set [1] (setting [3]), 6.02 ± 4.23 h in data set [1] (setting [4]) and 6.77 ± 5.92 h in data set [1] (setting [5]). Besides, in data set [1] (setting [5]), the Tmax at 100 μM was determined as 6 h. In addition, the figures for the “AUC0–t increase compared with the control group” value with HepG2 cells (baicalin + high PEG400 (1%) vs baicalin alone), in the data set on HepG2 cells (baicalin + low PEG400 (0.25%) vs baicalin alone) and in the data set with HepG2 cells (baicalin + medium PEG400 (0.5%) vs baicalin alone) were 1.72 fold, 1.41 fold and 1.48 fold, respectively.
